Results on one compound are retold here after patent US20230405134A1, “NOVEL PROTAC CHIMERIC COMPOUND, AND PHARMACEUTICAL COMPOSITION COMPRISING SAME FOR PREVENTING, AMELIORATING, OR TREATING DISEASES THROUGH TARGET PROTEIN DEGRADATION” (POSTECH RESEARCH AND BUSINESS DEVELOPMENT FOUNDATION, priority 2020, published 2023).

In test [1] the target is T1, UBR box (Saccharomyces cerevisiae, UniProt P19812).
T1 construct: UBR box (residues 113-194) in the UBR1 E3 ubiquitin ligase of S. cerevisiae; made in house
T1 sequence (P19812 113-194): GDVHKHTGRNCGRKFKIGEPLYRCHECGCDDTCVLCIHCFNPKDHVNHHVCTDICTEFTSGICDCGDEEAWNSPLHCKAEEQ
Put plainly: Competitive fluorescence polarization (FP) assay against fluorescein-labeled RLAA peptide. Format: binding, S. cerevisiae. The procedure: An expression plasmid of the PAS-B domain of human SRC-1 (residues 257-385) tagged with His6 was provided by Professor John. A. Robinson. (ChemBioChem 2008, 9, 1318-1322). The plasmid was transformed into BL21 (DE3) pLysS cells, and the protein was cultured in Luria-Bertani broth medium and induced with 0.5 mM IPTG at 18° C. for 16 hours. Cell disruption was performed by ultrasonic treatment in a buffer (50 mM Tris-HCl pH 8.0, 200 mM NaCl and 1 mM TCEP), and insoluble materials were removed by centrifugation. HisTrap™ column (GE Healthcare, 17-5255-01) chromatography was performed on the buffer and 500 mM of imidazole was applied for elution. In order to remove the His6-tag, TEV protease was used and the cleaved samples were loaded in HisTrap™ as described above. The SRC-1 was further purified by size exclusion chromatography (HiLoad™ 16/600 Superdex 75 pg) in a final buffer of 20 mM Tris-HCl pH 7.5, 150 mM NaCl and 1 mM TCEP. The expression and purification of the UBR box (residues 113-194) in the UBR1 E3 ubiquitin ligase of S. cerevisiae was performed in the previous manner. (Nat. Struct. Mol. Biol. 2010, 17, 1175-1181).
A competitive fluorescence polarization (FP) assay was performed to evaluate the binding affinity of ND1-YL2 to the target protein. A fluorescently labeled 15-mer STAT-6 peptide (100 nM) was cultured with the PAS-B domain (5 μM) of SRC-1 in a binding buffer (50 mM HEPES, pH 7.4, 150 mM NaCl, and 0.01% Tween 20). After being placed in black Costar 384-well plates for 30 minutes, they were treated with various concentrations of YL2 and ND1-YL2. After further incubation for 1 hour, the polarization of fluorescence was measured by a Tecan F200 microplate reader (excitation wavelength: 485 nm; emission wavelength: 535 nm). IC50 values were determined using non-linear regression and fitted with GraphPad Prism® 4 software using the following equation: Y=Bottom+(Top-Bottom)/(1+10^X-LogIC50) (FIG. 11A). […] The binding affinity was calculated as described above (FIG. 11B).

Test [2] has as its target SRC-1 (Homo sapiens, UniProt Q15788). Put plainly: SRC-1 expression level in Colo205 cells by Western blot. Type of test: cell-based. The arrangement: endogenous in cells. The note with it: Colo205 cells expressing very low levels of CRBN, various concentrations. How it is done: MDA-MB-231 cells were cultured at 37° C. in Dulbecco's modified Eagle's medium (DMEM) supplemented with penicillin-streptomycin containing 10% fetal bovine serum (FBS) and 5% CO2. Colo205 and A549 cells were cultured at 37° C. in Roswell Park Memorial Institute medium supplemented with penicillin-streptomycin with 10% FBS and 5% CO2.
In order to compare the SRC-1 proteolytic activity of ND1-YL2 and CL1-YL2 peptides in cells, A549 cells, which are human lung carcinoma cells, were treated with various concentrations of CL1-YL2, and the effect on SRC-1 degradation was analyzed by Western blot. A549 cells were seeded at 5×10^5 cells per well in a 6-well plate (Corning). Colo205 cells were seeded at 6×10^5 cells per well in a 6-well plate. After incubation at 37° C. for 24 hours, the cells were treated with the synthesized compounds in Opti-MEM medium. The cells were washed twice with cold Dulbecco's phosphate buffered saline (DPBS) prior to cell lysis. In order to lyse the cells, the cells on ice were treated with lysis buffer (50 mM Tris HCl pH 7.4, 150 mM NaCl, 1% TritonX, 1 mM EDTA, 1 mM DTT and 1×protease inhibitor cocktail). The cell lysate was centrifuged at 13,000×rpm for 15 minutes at 4° C. The supernatant was collected and the protein concentration was determined by Pierce™ 660 nm protein assay. […]

The subject of test [3] is CSF-1. Put plainly: CSF-1 mRNA level by RT-qPCR in MDA-MB-231 cells. To be noted: 12 hours. Format: cell-based, human. From the text:
The pharmacological effects on SRC-1 dependent signal transmission were explored using the previously discovered SRC-1 degrading substance. The SRC-1 is overexpressed in various cancers and plays a pivotal role in increasing cell migration and invasion by regulating the expression of related genes. Therefore, when treated with ND1-YL2, an SRC-1 degrading substance, the expression of genes stimulated by SRC-1, such as colony stimulating factor-1 (CSF-1), a gene encoding the cytokine CSF-1 that induces cell differentiation and migration, will be suppressed. To confirm this, MDA-MB-231 cells were treated with DMSO and various concentrations of ND1-YL2, YL2 or N-degron tetrapeptide for 12 hours, and the mRNA level of CSF-1 was normalized to 18S level. Confirmation was made using quantitative real-time polymerase chain reaction (RT-qPCR). MDA-MB-231 cells were seeded at 2×10^5 cells per well. After 24 hours, compounds (YL2, RLAA or ND1-YL2) were treated in Opti-MEM medium for 12 hours. Subsequently, general mRNA isolation was performed using TRI reagent (Takara), and total mRNA was isolated from the cells. The absorbance of total mRNA was measured with a Tecan F200 Nanophotometer, and reverse transcription was performed using AccuPower RocketScript Cycle RT PreMix (Bioneer). Quantitative real-time PCR for CSF-1, E-Cadherin and 18S was performed using a StepOnePlus Real-Time PCR System and SYBR Green mix (Applied Biosystems) according to the manufacturer's manual.

SMILES strings stand for the structures. Where a SMILES comes first, the peptide text is derived from it. Bridges are numbered along the chain shown (N, C = ends). [ ]: non-standard residue; d: D form. Cha = N[C@@H](CC1CCCCC1)C(=O)O; S5 = C=CCCC[C@](C)(N)C(=O)O

Chain of SRC-1 (Q15788 whole entry): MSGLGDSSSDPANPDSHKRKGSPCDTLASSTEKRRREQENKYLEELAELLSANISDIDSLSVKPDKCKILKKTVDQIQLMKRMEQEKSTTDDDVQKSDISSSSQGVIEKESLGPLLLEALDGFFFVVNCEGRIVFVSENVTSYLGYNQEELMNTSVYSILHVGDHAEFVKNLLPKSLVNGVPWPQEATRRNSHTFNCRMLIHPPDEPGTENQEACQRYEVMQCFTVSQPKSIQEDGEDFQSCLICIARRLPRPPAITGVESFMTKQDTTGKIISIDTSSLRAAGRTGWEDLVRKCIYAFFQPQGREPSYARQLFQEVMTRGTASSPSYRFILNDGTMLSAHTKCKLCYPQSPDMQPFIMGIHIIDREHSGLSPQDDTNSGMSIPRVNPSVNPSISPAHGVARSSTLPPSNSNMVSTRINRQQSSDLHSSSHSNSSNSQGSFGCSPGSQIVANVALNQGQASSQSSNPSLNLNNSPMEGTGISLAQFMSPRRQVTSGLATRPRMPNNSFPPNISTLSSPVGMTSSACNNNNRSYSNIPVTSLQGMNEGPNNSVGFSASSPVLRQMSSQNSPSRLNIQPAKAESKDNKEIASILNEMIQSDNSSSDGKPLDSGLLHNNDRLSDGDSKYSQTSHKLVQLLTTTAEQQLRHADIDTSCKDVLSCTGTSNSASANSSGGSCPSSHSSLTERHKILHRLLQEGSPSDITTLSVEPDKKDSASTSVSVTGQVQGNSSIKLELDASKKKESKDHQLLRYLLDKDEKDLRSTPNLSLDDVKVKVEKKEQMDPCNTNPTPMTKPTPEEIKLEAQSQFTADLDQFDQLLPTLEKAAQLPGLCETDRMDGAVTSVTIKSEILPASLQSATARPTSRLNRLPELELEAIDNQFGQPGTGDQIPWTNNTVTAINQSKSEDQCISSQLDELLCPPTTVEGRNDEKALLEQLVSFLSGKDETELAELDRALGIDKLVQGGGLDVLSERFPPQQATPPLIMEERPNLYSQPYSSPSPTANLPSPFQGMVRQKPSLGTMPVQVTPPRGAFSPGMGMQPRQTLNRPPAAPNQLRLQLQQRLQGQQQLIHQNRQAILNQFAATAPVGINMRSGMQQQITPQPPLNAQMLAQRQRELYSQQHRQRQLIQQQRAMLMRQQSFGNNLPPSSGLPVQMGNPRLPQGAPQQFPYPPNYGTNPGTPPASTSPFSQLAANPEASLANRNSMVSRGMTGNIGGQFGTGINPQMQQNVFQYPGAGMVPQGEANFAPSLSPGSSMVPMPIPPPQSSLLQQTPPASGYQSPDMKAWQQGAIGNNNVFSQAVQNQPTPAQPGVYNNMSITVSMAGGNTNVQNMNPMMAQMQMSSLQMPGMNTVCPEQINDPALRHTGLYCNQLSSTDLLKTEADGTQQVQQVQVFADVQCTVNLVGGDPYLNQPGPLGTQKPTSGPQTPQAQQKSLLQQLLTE

Take `CC(C)C[C@H](NC(=O)[C@H](C)NC(=O)[C@H](C)NC(=O)[C@H](C)NC(=O)[C@H](C)NC(=O)[C@H](CC(C)C)NC(=O)[C@@H](N)CCCNC(=N)N)C(=O)N[C@@H](CC(C)C)C(=O)N1CCC[C@H]1C(=O)N1CCC[C@H]1C(=O)N[C@H](C(=O)N[C@@H](CCC(=O)O)C(=O)N[C@@H](CCC(N)=O)C(=O)N[C@@H](CC(=O)O)C(=O)N[C@@H](CC(C)C)C(=O)N[C@@]1(C)CCC/C=C\CCC[C@@](C)(C(=O)N[C@@H](Cc2ccc(O)cc2)C(N)=O)NC(=O)[C@H](CC2CCCCC2)NC(=O)[C@H](CC(C)C)NC(=O)[C@H](CCCCN)NC1=O)[C@@H](C)O` [ND1-YL2] (H-RLAAAALLPPTEQDL[S5]KL[Cha][S5]Y-NH2; staple (Z) 16-20): in test [1], the “Improved affinity for the UBR box compared to the RLAA tetrapeptide” value is recorded as “approximately 3 fold” and the Ki came to 1480 nM. Further, the “Difference in binding affinity for target E3 ligase compared to CL1-YL2” value in test [1] (ND1-YL2 binds less strongly to its E3 ligase than CL1-YL2) is about 10 fold. Moreover, in test [2], the “Effect on SRC-1 expression level” value is given as “induced a decrease in the expression level of SRC-1 in a dose-dependent manner”. Further, the “Effect on CSF-1 expression (mRNA normalized to 18S)” value in test [3] is “downregulated CSF-1 expression”.
